In US10941158B2, “Pyrazole ACC inhibitors and uses thereof” (Gilead Apollo, LLC, priority 2015, dated 2021):
Converted amounts (≈) assume the structure as drawn. Read-outs that look alike come from different tables or passages of the source.

Experiments:
human (hACC2) ACC2 = human (hACC2) ACC2 (Homo sapiens, UniProt O00763); assay: In vitro Acetyl-CoA Carboxylase (ACC) inhibition assay (ADP-Glo), hACC2; type: biochemical
Experimental: The detailed procedure is as follows. […] 10 μL ADP glo reagent was added. […] 20 μL kinase detection reagent was added.
“NA” stands for “not assayed.”

fungal (fACC2) ACC2 = fungal (fACC2) ACC2 (UniProt Q00955); conditions: read-out: fACC2 IC50; fungal ACC2, ADP-Glo
Chain of fungal (fACC2) ACC2 (Q00955 whole entry): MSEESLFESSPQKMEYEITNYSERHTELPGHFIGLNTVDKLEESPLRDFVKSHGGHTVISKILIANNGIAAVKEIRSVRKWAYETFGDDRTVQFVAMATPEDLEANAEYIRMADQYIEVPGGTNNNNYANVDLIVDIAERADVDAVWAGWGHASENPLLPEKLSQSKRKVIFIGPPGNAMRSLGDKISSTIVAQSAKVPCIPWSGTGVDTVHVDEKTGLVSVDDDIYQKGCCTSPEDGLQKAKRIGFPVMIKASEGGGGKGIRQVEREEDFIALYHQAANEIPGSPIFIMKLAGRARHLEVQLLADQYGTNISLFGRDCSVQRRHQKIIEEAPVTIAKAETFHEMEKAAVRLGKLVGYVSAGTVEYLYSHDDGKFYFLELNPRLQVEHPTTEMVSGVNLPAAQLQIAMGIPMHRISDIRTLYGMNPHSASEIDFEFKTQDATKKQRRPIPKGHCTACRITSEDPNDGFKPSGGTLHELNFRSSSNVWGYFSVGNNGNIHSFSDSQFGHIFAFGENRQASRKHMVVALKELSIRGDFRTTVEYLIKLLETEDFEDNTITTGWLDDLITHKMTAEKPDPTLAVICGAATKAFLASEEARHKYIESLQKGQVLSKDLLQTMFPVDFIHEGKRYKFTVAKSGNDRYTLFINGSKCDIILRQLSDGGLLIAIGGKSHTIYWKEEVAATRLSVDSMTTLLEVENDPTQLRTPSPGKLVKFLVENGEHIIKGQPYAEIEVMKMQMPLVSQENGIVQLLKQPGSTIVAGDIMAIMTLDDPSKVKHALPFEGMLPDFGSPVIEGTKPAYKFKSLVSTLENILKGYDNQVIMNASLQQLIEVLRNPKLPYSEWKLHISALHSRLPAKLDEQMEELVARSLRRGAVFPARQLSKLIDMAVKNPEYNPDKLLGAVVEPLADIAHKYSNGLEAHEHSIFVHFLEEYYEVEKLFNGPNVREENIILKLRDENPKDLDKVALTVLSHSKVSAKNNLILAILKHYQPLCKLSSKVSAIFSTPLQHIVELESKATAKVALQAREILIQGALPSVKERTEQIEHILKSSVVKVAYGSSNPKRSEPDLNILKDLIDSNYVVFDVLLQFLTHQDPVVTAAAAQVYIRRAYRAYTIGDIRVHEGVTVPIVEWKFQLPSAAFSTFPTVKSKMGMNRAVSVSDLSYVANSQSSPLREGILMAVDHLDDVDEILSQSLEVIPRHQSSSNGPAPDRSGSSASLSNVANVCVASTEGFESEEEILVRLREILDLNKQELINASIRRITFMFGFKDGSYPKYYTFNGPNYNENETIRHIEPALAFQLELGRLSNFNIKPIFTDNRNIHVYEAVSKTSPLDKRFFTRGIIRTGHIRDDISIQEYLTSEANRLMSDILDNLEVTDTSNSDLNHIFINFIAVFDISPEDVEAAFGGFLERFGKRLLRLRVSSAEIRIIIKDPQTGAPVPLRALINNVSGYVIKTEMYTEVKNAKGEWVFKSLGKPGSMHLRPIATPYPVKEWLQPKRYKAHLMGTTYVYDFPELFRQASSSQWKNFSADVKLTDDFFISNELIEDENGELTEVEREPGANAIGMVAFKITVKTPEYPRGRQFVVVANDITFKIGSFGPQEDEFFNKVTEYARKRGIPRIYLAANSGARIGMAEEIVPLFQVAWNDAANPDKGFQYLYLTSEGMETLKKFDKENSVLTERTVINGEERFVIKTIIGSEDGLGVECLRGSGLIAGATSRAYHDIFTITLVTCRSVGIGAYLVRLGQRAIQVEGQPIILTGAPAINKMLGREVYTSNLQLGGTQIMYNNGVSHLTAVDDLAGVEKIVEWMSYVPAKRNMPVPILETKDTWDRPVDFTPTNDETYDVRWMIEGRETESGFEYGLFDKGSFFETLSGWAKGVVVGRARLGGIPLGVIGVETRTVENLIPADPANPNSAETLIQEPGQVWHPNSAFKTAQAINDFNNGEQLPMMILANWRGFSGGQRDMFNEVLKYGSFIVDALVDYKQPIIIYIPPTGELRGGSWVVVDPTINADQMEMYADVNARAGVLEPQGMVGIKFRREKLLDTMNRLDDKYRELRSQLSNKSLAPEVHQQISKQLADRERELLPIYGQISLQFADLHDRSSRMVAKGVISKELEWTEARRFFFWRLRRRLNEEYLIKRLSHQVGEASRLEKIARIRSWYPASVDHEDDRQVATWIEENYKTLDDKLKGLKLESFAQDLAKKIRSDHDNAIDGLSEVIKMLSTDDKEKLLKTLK

[1] = system: Fusarium moniliforme (Fm); assay: Growth inhibition assay of fungal pathogens; type: cell-based; conditions: for IC90: Fusarium verticillioides, 48 h, read-out: Concentration at 90% Inhibition Fm
How it was run: (§1)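 Compounds in DMSO tested at final 50, 10, 2 ppm or 2, 0.4, 0.08 ppm. Spores in 17% V8 medium, or 1.5 mm mycelial plugs in ¼ PDB for R. solani, incubated with compound. OD600 and visual ratings at 48 h versus 2% DMSO control gave percent growth inhibition.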

[2] = system: Phytophthora capsici (Pc); assay: Growth inhibition assay of fungal pathogens; type: cell-based; conditions: for IC90: Phytophthora capsici, read-out: Concentration at 90% Inhibition Pc
How it was run: (§2)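 Percent growth inhibition was derived from 48 h OD600 and visual scores relative to 2% DMSO, with blank background subtraction. Fungi were grown from spores in 17% V8 liquid medium, R. solani from 1.5 mm plugs in ¼ PDB, with compound at final 50/10/2 or 2/0.4/0.08 ppm.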

Botrtyis cinerea (Bc) = assay: Growth inhibition assay of fungal pathogens; type: cell-based; conditions: 48 h, read-out: Concentration at 90% Inhibition Bc
How it was run: as §1

[3] = system: Collectotrichum graminicola (Cg); assay: Growth inhibition assay of fungal pathogens; type: cell-based; conditions: 48 h, read-out: Concentration at 90% Inhibition Cg
How it was run: as §2

Septoria tritici (St) = assay: Growth inhibition assay of fungal pathogens; type: cell-based; conditions: for IC90: Zymoseptoria tritici, read-out: Concentration at 90% Inhibition St
How it was run: as §2

Diplodia maydis (Dm) = assay: Growth inhibition assay of fungal pathogens; type: cell-based; conditions: Stenocarpella maydis, 48 h, read-out: Concentration at 90% Inhibition Dm
How it was run: as §1

[4] = system: Fusarium virguliforme (Fv); assay: Growth inhibition assay of fungal pathogens; type: cell-based; conditions: 48 h
How it was run: as §2

Rhizoctonia solani (Rs) = assay: Growth inhibition assay of fungal pathogens; type: cell-based; conditions: 48 h, read-out: Concentration at 90% Inhibition Rs
How it was run: as §1

C. krusei ATCC 6258 = assay: Anti-Fungal (Candida) Activity Assay, broth microtiter MIC; type: cell-based; conditions: Pichia kudriavzevii, read-out: MIC C. krusei ATCC 6258
How it was run: (§3)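 Test compounds were dissolved in DMSO at 1 mg/mL (stock) and challenged against direct colony suspensions in RPMI 1640 with MOPS under CLSI M27-A3 broth microdilution. Growth was judged by eye relative to drug-free control after 48 h.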

[5] = system: C. parapsilosis ATCC 22019; assay: as above; type: cell-based; conditions: Lodderomyces parapsilosis, read-out: MIC C. parapsilosis ATCC 22019
How it was run: as §3

C. albicans ATCC 90028 = assay: as above; type: cell-based; conditions: read-out: MIC C. albicans ATCC 90028
How it was run: as §3

[6] = read-out: Concentration at 90% Inhibition Fv, Table 4a, 48 hours
[7] = read-out: Concentration at 90% Inhibition Fv, Table 4b, 48 hours

Chain of human (hACC2) ACC2 (O00763 whole entry): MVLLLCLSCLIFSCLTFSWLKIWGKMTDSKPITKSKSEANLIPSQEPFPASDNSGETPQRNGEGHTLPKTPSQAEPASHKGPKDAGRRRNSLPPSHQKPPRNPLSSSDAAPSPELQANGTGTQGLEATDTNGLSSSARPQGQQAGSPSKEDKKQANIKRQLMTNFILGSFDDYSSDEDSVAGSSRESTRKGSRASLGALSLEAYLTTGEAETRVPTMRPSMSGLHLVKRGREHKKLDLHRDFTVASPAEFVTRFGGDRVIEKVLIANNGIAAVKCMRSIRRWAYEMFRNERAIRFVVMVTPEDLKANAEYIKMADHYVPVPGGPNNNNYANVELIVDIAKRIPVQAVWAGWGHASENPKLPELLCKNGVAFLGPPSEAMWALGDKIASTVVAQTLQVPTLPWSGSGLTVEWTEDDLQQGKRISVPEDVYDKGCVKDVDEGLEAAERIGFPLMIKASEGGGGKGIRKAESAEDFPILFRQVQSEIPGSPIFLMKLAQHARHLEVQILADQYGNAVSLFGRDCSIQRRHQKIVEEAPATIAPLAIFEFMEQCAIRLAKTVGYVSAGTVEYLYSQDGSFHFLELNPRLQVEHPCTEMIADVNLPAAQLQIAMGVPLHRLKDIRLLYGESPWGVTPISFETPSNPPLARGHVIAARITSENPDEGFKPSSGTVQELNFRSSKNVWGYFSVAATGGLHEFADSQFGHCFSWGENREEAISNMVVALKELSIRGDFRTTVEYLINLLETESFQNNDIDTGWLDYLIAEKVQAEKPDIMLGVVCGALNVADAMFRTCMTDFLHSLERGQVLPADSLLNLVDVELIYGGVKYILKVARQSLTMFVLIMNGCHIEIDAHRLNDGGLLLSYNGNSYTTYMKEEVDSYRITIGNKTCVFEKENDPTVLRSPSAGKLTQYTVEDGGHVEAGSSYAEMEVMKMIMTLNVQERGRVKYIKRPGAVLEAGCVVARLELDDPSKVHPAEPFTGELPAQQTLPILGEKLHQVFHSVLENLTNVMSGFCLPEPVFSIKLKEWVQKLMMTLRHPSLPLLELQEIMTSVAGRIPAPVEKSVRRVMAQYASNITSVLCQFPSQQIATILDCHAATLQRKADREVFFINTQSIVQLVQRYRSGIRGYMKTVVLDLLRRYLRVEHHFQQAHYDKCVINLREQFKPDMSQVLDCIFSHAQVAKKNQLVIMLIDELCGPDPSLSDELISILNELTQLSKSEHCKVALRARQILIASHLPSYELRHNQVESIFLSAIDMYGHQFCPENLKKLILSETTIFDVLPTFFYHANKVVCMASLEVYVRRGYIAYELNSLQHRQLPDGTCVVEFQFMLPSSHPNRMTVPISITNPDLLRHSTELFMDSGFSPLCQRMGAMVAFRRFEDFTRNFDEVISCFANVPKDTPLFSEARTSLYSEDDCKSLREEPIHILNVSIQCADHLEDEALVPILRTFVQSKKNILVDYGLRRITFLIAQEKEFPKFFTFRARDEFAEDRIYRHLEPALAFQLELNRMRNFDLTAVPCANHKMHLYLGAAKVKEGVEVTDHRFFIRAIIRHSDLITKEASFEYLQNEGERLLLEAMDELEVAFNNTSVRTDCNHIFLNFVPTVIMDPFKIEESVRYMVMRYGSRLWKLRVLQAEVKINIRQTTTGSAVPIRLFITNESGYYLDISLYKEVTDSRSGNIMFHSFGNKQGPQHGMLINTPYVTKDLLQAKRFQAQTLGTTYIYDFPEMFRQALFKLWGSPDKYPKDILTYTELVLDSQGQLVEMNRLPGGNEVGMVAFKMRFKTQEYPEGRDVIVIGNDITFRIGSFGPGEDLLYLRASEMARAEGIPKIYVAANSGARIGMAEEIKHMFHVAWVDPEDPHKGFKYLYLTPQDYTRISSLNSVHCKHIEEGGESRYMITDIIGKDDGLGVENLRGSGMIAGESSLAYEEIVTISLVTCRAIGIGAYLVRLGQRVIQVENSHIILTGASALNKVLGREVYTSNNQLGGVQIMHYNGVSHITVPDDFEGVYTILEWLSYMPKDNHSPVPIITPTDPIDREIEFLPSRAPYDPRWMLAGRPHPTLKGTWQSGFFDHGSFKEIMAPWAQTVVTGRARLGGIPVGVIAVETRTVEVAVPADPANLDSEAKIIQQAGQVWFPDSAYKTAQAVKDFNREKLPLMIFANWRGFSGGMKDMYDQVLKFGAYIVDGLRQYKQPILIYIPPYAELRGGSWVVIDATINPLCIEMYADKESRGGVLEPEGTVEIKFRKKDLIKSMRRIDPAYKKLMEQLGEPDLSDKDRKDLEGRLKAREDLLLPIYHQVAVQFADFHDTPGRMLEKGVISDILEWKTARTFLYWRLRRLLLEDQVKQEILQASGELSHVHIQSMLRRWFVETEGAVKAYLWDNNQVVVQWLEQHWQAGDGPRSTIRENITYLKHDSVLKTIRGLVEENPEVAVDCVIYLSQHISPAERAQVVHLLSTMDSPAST

COc1ccc(F)cc1[C@H](Cn1c(=O)n(C(C)(C)C(=O)N2CCCCC2)c(=O)c2c(C)c(-n3cccn3)sc21)OC(C)C [Compound I-2, (R)-1-(2-(5-fluoro-2-methoxyphenyl)-2-isopropoxyethyl)-5-methyl-3-(2-methyl-1-oxo-1-(piperidin-1-yl)propan-2-yl)-6-(1H-pyrazol-1-yl)thieno[2,3-d]pyrimidine-2,4(1H,3H)-dione]
IC50 (human (hACC2) ACC2): 10 to 40 nM
IC50 (fungal (fACC2) ACC2): 0.6 to 3 nM
IC90 [1]: 0.08 µg/mL (≈ 0.131 µM)
Concentration at 90% Inhibition Fm ([1]; Table 4b, 48 hours): AA (“AA” provided a compound concentration of 0.08 ppm at 90% inhibition of fungal pathogens)
IC90 ([2]; 48 h, Table 4a): > 50 µg/mL
IC90 ([2]; 48 h, Table 4b): > 50 µg/mL
IC90 (Botrtyis cinerea (Bc); Table 4a): 0.4 µg/mL (≈ 0.654 µM)
IC90 (Botrtyis cinerea (Bc); Table 4b): 0.4 µg/mL (≈ 0.654 µM)
IC90 ([3]; Table 4a): 2 µg/mL (≈ 3.27 µM)
IC90 ([3]; Table 4b): 2 µg/mL (≈ 3.27 µM)
IC90 (Septoria tritici (St); 48 h, Table 4a): > 50 µg/mL
IC90 (Septoria tritici (St); 48 h, Table 4b): > 50 µg/mL
IC90 (Diplodia maydis (Dm); Table 4a): 0.4 µg/mL (≈ 0.654 µM)
IC90 (Diplodia maydis (Dm); Table 4b): 0.4 µg/mL (≈ 0.654 µM)
IC90 [4, 6]: 0.4 µg/mL (≈ 0.654 µM)
IC90 [4, 7]: 0.4 µg/mL (≈ 0.654 µM)
IC90 (Rhizoctonia solani (Rs); Table 4a): 0.4 µg/mL (≈ 0.654 µM)
IC90 (Rhizoctonia solani (Rs); Table 4b): 0.4 µg/mL (≈ 0.654 µM)
MIC (C. krusei ATCC 6258; ATCC6258, 48 h): 0.25 to 1 µg/mL (≈ 0.409 to 1.63 µM)
MIC ([5]; ATCC22019, 48 h): 1.1 to 2 µg/mL (≈ 1.8 to 3.27 µM)
MIC (C. albicans ATCC 90028; ATCC90028, 48 h): 0.25 to 1 µg/mL (≈ 0.409 to 1.63 µM)

COc1ccccc1[C@H](Cn1c(=O)n(C(C)(C)C(=O)N2CCCCC2)c(=O)c2c(C)c(-n3cccn3)sc21)OC1CCOCC1 [Compound I-13, (R)-1-(2-(2-methoxyphenyl)-2-((tetrahydro-2H-pyran-4-yl)oxy)ethyl)-5-methyl-3-(2-methyl-1-oxo-1-(piperidin-1-yl)propan-2-yl)-6-(1H-pyrazol-1-yl)thieno[2,3-d]pyrimidine-2,4(1H,3H)-dione]
IC50 (human (hACC2) ACC2): 10 to 40 nM
IC50 (fungal (fACC2) ACC2): 0.6 to 3 nM
IC90 [1]: 0.4 µg/mL (≈ 0.629 µM)
Concentration at 90% Inhibition Fm ([1]; Table 4b, 48 hours): A (“A” provided a compound concentration of 0.4 ppm at 90% inhibition of fungal pathogens)
IC90 ([2]; 48 h, Table 4a): > 50 µg/mL
IC90 ([2]; 48 h, Table 4b): > 50 µg/mL
IC90 (Botrtyis cinerea (Bc); Table 4a): 2 µg/mL (≈ 3.15 µM)
IC90 (Botrtyis cinerea (Bc); Table 4b): 2 µg/mL (≈ 3.15 µM)
IC90 ([3]; Table 4a): > 50 µg/mL
IC90 ([3]; Table 4b): 10 µg/mL (≈ 15.7 µM)
IC90 (Septoria tritici (St); 48 h, Table 4a): > 50 µg/mL
IC90 (Septoria tritici (St); 48 h, Table 4b): > 50 µg/mL
IC90 (Diplodia maydis (Dm); Table 4a): > 50 µg/mL
IC90 (Diplodia maydis (Dm); Table 4b): 10 µg/mL (≈ 15.7 µM)
IC90 [4, 6]: > 50 µg/mL
IC90 [4, 7]: 10 µg/mL (≈ 15.7 µM)
IC90 (Rhizoctonia solani (Rs); Table 4a): > 50 µg/mL
IC90 (Rhizoctonia solani (Rs); Table 4b): 10 µg/mL (≈ 15.7 µM)
MIC (C. krusei ATCC 6258; ATCC6258, 48 h): 0.25 to 1 µg/mL (≈ 0.393 to 1.57 µM)
MIC ([5]; ATCC22019, 48 h): 1.1 to 2 µg/mL (≈ 1.73 to 3.15 µM)
MIC (C. albicans ATCC 90028; ATCC90028, 48 h): 0.25 to 1 µg/mL (≈ 0.393 to 1.57 µM)

COc1ccccc1[C@H](Cn1c(=O)n(C(C)(C)C(=O)N2CCCC2)c(=O)c2c(C)c(-n3cccn3)sc21)OC(C)C [Compound I-18, (R)-1-(2-isopropoxy-2-(2-methoxyphenyl)ethyl)-5-methyl-3-(2-methyl-1-oxo-2-(pyrrolidin-1-yl)propan-2-yl)-6-(H-pyrazol-1-yl)thieno[2,3-d]pyrimidine-2,4(1H,3H)-dione]
IC50 (human (hACC2) ACC2): 3 to 10 nM
IC50 (fungal (fACC2) ACC2): 0.6 to 3 nM
IC90 ([1]; Table 4a, 48 hours): 0.08 µg/mL (≈ 0.138 µM)
IC90 ([1]; Table 4b, 48 hours): 0.08 µg/mL (≈ 0.138 µM)
IC90 ([2]; Table 4a, 48 hours): > 50 µg/mL
Concentration at 90% Inhibition Pc ([2]; Table 4b, 48 hours): D (“D” provided a compound concentration of >50 ppm at 90% inhibition of fungal pathogens)
IC90 (Botrtyis cinerea (Bc); Table 4a): 2 µg/mL (≈ 3.45 µM)
IC90 (Botrtyis cinerea (Bc); Table 4b): 2 µg/mL (≈ 3.45 µM)
IC90 ([3]; Table 4a): 2 µg/mL (≈ 3.45 µM)
IC90 ([3]; Table 4b): 2 µg/mL (≈ 3.45 µM)
Concentration at 90% Inhibition St (Septoria tritici (St); Table 4b, 48 hours): D (“D” provided a compound concentration of >50 ppm at 90% inhibition of fungal pathogens)
IC90 (Septoria tritici (St); Table 4a, 48 hours): > 50 µg/mL
IC90 (Diplodia maydis (Dm); Table 4a): 2 µg/mL (≈ 3.45 µM)
IC90 (Diplodia maydis (Dm); Table 4b): 2 µg/mL (≈ 3.45 µM)
IC90 ([4]; Table 4a, 48 hours, read-out: Concentration at 90% Inhibition Fv): 0.4 µg/mL (≈ 0.69 µM)
IC90 ([4]; Table 4b, 48 hours, read-out: Concentration at 90% Inhibition Fv): 0.4 µg/mL (≈ 0.69 µM)
IC90 (Rhizoctonia solani (Rs); Table 4a): 0.4 µg/mL (≈ 0.69 µM)
IC90 (Rhizoctonia solani (Rs); Table 4b): 0.4 µg/mL (≈ 0.69 µM)
MIC (C. krusei ATCC 6258; ATCC6258, 3 replicates, MIC recorded at 48 h): 2.1 to 4 µg/mL (≈ 3.62 to 6.9 µM)
MIC ([5]; ATCC22019, 3 replicates, MIC recorded at 48 h): 2.1 to 4 µg/mL (≈ 3.62 to 6.9 µM)
MIC (C. albicans ATCC 90028; ATCC90028, 3 replicates, MIC recorded at 48 h): 1.1 to 2 µg/mL (≈ 1.9 to 3.45 µM)
